The results in this text go back to patent publication US12011444B2, “N-substituted indole derivatives as PGE2 receptor modulators” (Idorsia Pharmaceuticals Ltd, priority 2015, dated 2024).

pIC50: −log10 of the molar value. Where two headings read alike, the source gives them in different places.

In assay [1] the target is T1, EP2 (Homo sapiens (Human), UniProt P43116). The assay is described as follows: cell-based.
Source text: (§1) Human tumor cell lines expressing endogenously either EP4 or EP2 are used and cAMP accumulation in cells upon PGE2 stimulation is monitored. SF295 glioblastoma cells express high endogenous EP2 and no EP4, whereas BT549 breast cancer cells, express high endogenous EP4 levels and very low EP2 levels.
(§2) As a detection method for cAMP the HTRF (homogeneous time resolved fluorescence) Cisbio kit (HTRF cAMP dynamic 2 kit 20′000 tests Cisbio Cat. #62AM4PEC) was used, which is based on a competitive immunoassay using a Cryptate-labeled anti-cAMP antibody and d2-labeled cAMP. Native cAMP produced by cells or unlabeled cAMP (for the standard curve) compete with exogenously added d2-labeled cAMP (acceptor) for binding to monoclonal anti-cAMP-Eu3+Cryptate (donor). A FRET signal (Fluorescence Resonance Energy Transfer) is obtained only if the labeled anti-cAMP antibody binds the d2 labelled cAMP, thus the specific signal (i.e. energy transfer) is inversely proportional to the concentration of cAMP in the standard or sample.
(§3) The SF295 cells (NCI/No. 0503170) are detached from culture dishes with a cell dissociation buffer (Invitrogen, 13151-014), and collected in growing medium (GM: RPM11640 (Invitrogen 21875)/10% FCS, 1% Penicilin/streptomycin). Cells are counted washed and resuspended in assay buffer (AB; HBSS, 20 mM HEPES, 0.2% BSA; 2 mM IBMX). 4,000 cells in 5 μl of AB are seeded per well of a small volume 384 well plate (black with flat bottom, Greiner 784076).
(§4) PGE2 (Cayman 14010, stock solution: 75 μM in DMSO) is used as agonist at 75 nM final concentration, corresponding to EC80.
(§5) Two point five microliters of diluted compounds are transferred into the assay plate. Plate is pre-incubated 45 minutes at room temperature. Subsequently, 2.5 microliters of PGE2 (final conc. 75 nM) are transferred into the assay plate. Plate is incubated 30 minutes at room temperature. Five μl of each donor (anti-cAMP cryptate) and acceptor (cAMP-d2) are added and the plate is incubated another hour at room temperature in the dark and then read using a BMG LABTECH PHERAstar reader (Excitation: 337 nm, Emission: 620 and 665 nm).
(§6) The obtained Delta F (fluorescence) values (665 nm/620 nM) are converted into % cAMP values using the measurements of the cAMP calibrator provided in the kit. For each compound concentration the percentage of cAMP compared to DMSO control value as average±STDEV (each concentration is measured in duplicate) is calculated.
(§7) IC50 values and curves are generated with XLfit software (IDBS) using Dose-Response One Site model 203. When compounds were measured multiple times, mean values are given.
A further assay deals with EP4 (Homo sapiens (Human), UniProt P35408). Kind of assay: hEP4 cAMP assay (BT549 breast cancer cells, HTRF cAMP). It is filed as cell-based. To be noted: antagonistic activity; mean values where measured multiple times. As to the method:
Plate is pre-incubated 45 minutes at room temperature. Subsequently, 2.5 microliters of PGE2 (final conc. 6 nM) are transferred into the assay plate. Plate is incubated 30 minutes at room temperature.
Background: cAMP levels reflect the balance of adenylyl cyclase and phosphodiesterase activity.

For assay [2], the target named is T1, EP2.
Source text: as §1, §2, §3, §4, §5, §6, §7

Sequence of EP4 (P35408 whole entry): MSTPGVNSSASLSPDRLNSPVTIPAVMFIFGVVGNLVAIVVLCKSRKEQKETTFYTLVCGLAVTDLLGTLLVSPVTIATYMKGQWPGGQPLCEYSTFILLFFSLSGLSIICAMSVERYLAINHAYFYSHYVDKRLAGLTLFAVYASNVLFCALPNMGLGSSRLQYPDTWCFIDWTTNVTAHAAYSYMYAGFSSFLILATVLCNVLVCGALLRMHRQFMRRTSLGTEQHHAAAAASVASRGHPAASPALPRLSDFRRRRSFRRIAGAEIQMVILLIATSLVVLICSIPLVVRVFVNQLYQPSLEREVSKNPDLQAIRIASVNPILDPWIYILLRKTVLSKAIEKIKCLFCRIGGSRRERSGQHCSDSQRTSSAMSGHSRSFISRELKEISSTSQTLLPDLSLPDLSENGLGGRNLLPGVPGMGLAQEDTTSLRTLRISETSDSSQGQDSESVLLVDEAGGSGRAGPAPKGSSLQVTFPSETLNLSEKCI
T1 sequence (P43116 whole entry): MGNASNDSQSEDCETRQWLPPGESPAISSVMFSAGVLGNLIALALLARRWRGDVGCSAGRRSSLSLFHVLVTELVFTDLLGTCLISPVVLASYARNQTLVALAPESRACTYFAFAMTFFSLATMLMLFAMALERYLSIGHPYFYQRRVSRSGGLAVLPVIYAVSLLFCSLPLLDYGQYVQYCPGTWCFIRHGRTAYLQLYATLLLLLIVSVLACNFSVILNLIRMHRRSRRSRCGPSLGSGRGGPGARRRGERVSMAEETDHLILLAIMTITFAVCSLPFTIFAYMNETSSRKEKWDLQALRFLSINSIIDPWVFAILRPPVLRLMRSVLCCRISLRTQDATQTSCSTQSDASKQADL

As a reminder, the pIC50 is the IC50 on a negative log10 scale, so that one unit is a factor of ten. `CCOc1cc(-c2cc(NCC(C)n3c(C)cc4c(OC)ccc(F)c43)ncn2)ccc1C(=O)O` (racemic) [Example 794, rac-2-Ethoxy-4-{6-[2-(7-fluoro-4-methoxy-2-methyl-indol-1-yl)-propylamino]-pyrimidin-4-yl}-benzoic acid]: the negative logarithm of the IC50 (pIC50) was 6.51 against EP2 [1] and 6.10 against EP4.
The matching figures for `COc1cccc2c1cc(C)n2CCNc1cc(-c2ccc3c(c2)C(CC(C)C)NC3=O)ncn1` (racemic) [compound 461]: 7.62 and 6.65.
Take `Cc1ccc(F)c2c1cc(C)n2CCNc1cc(-c2ccc3c(c2)C(CC(C)C)NC3=O)ncn1` (racemic) [compound 468]: the figures for the pIC50 at EP2 [1] and against EP4 were 7.23 and 6.58, respectively.
Consider `COc1ccc(F)c2c1cc(C)n2CCNc1cc(-c2ccc3c(c2)C(CC(C)C)NC3=O)ncn1` (racemic) [compound 474], for which the negative-log IC50 (pIC50) against EP2 [1] was 7.66; against EP4, 6.65.
The matching figures for `COc1ccc(F)c2c1cc(C)n2C(C)CNc1cc(-c2ccc(C(=O)O)c(CC(C)C)c2)ncn1` (racemic) [Example 795, rac-4-{6-[2-(7-Fluoro-4-methoxy-2-methyl-indol-1-yl)-propylamino]-pyrimidin-4-yl}-2-isobutyl-benzoic acid]: 7.07 and 6.51.
The matching figures for `CCCC1NC(=O)c2ccc(-c3cc(NCCn4c(C)cc5c(OC)ccc(F)c54)ncn3)cc21` (racemic) [compound 465]: 7.77 and 7.12.
On to `CCOc1cc(-c2cc(NCCn3c(C)cc4c(OC)ccc(F)c43)ncn2)ccc1C(O)C(F)(F)F` (racemic) [compound 571], for which the results for the pIC50 at EP2 [1] and at EP4 were 6.83 and 6.29, respectively.
Turning to `COc1ccc(F)c2c1cc(C)n2CCNc1cc(-c2ccc(C(=O)O)c(OC3CCCC3)c2)ncn1` [compound 595, 2-Cyclopentyloxy-4-{6-[2-(7-fluoro-4-methoxy-2-methyl-indol-1-yl)-ethylamino]-pyrimidin-4-yl}-benzoic acid], the pIC50 on EP2 [2] was 8.00; against EP4 it was 7.14.
The matching figures for `COc1cc(F)cc2c1cc(C)n2CCNc1cc(-c2ccc3oc(C)nc3c2)ncn1` [compound 687]: 7.04 and 6.11.
Regarding `Cc1nc(-c2ccc(-c3cc(NCCn4c(C)cc5c(C)cc(F)cc54)ncn3)cc2)co1` [compound 565], the pIC50 against EP2 [2] is 7.11; on EP4, 6.36.
Regarding `Cc1cc(F)c(F)c2c1cc(C)n2CCNc1cc(-c2cc(Cl)c(C(=O)O)c(OCC(C)C)c2)ncn1` [compound 694], the pIC50 is 7.31 against EP2 [2] and 6.92 at EP4.
The matching figures for `COc1c(F)cc(Cl)c2c1cc(C)n2CCNc1cc(-c2cc(F)c(C(=O)O)c(SC)c2)ncn1` [compound 509]: 6.96 and 6.16.
For `Cc1cc2c(F)cc(F)c(F)c2n1CCNc1cc(-c2ccc(C(=O)O)c(CC(C)C)c2)ncn1` [compound 505], the negative-log IC50 (pIC50) is 7.68 against EP2 [2] and 6.17 on EP4.
`CCCOc1cc(-c2cc(NCCn3c(C)cc4c(OC)ccc(Cl)c43)ncn2)ccc1C(=O)O` [compound 495]: the pIC50 was 7.68 on EP2 [2] and 6.46 on EP4.
`COc1ccc(F)c2c1cc(C)n2CCNc1cc(-c2cc(Cl)c(C(=O)O)c(OCC(F)(F)F)c2)ncn1` [compound 725]: the pIC50 at EP2 [2] was 8.22; at EP4, 7.24.
Turning to `CCOc1cc(-c2cc(NCCn3c(C)cc4c(C)ccc(F)c43)ncn2)ccc1CNCCOC` [compound 562], the pIC50 against EP2 [2] is 6.44; against EP4 it was 6.26.
The matching figures for `COc1cc(F)cc2c1cc(C)n2CCNc1cc(-c2cc(Cl)c(C(=O)O)c(OCC(F)(F)F)c2)ncn1` [compound 721]: 7.74 and 7.22.
The matching figures for `COc1ccc(F)c2c1cc(C)n2CCNc1cc(-c2ccc(C(=O)O)c(CC(C)C)c2)ncn1` [compound 537]: 7.66 and 7.09.
The matching figures for `COc1cccc2c1cc(C)n2CCNc1cc(-c2ccc(C(=O)O)c(OC(F)(F)F)c2)ncn1` [compound 499]: 8.22 and 6.15.
`CCOc1cc(-c2cc(NCCn3c(C)cc4c(OC)cc(F)cc43)ncn2)ccc1C(=O)O` [compound 403]: the pIC50 is 7.70 on EP2 [2] and 6.89 against EP4.
The matching figures for `COc1cc(F)c(F)c2c1cc(C)n2CCNc1cc(-c2ccc3[nH]ccc3c2)ncn1` [compound 701, [2-(6,7-Difluoro-4-methoxy-2-methyl-indol-1-yl)-ethyl]-[6-(1H-indol-5-yl)-pyrimidin-4-yl]-amine]: 7.82 and 7.62.
Turning to `CCCCOc1cc(-c2cc(NCCn3c(C)cc4c(OC)ccc(F)c43)ncn2)sc1C(=O)O` [compound 673], the figures for the pIC50 against EP2 [2] and on EP4 were 8.70 and 8.52, respectively.
On to `CCOc1cc(-c2cc(NCCn3c(C)cc4c(OC)cc(F)c(F)c43)ncn2)sc1C(=O)O` [compound 408], for which the pIC50 was 8.40 against EP2 [2] and 8.52 against EP4.
`Cc1c(F)cc(F)c2c1cc(C)n2CCNc1cc(-c2ccc(C(=O)O)c(OC(F)F)c2)ncn1` [compound 510]: the pIC50 was 7.70 against EP2 [2] and 6.67 against EP4.
The matching figures for `CCCc1cc(-c2cc(NCCn3c(C)cc4c(OC)cccc43)ncn2)cc(Cl)c1C(=O)O` [compound 444]: 8.15 and 7.03.
The matching figures for `COc1ccc(F)c2c1cc(C)n2CCNc1cc(-c2cc(C(F)(F)F)c(C(=O)O)s2)ncn1` [compound 446]: 7.80 and 8.10.
In the case of `Cc1cc(F)c(F)c2c1cc(C)n2CCNc1cc(-c2ccc3c(ccn3C)c2)ncn1` [compound 702], the results for the pIC50 against EP2 [2] and on EP4 were 6.78 and 6.65, respectively.
As to `Cc1cc2ccccc2n1CCNc1cc(-c2ccc3c(=O)[nH][nH]c3c2)ncn1` [Example 772, 6-{6-[2-(2-Methyl-indol-1-yl)-ethylamino]-pyrimidin-4-yl}-1,2-dihydro-indazol-3-one], the pIC50 against EP2 [2] is 7.82; against EP4, 6.50.
Turning to `Cc1cc(F)cc2c1cc(C#N)n2CCNc1cc(-c2ccc(C(=O)O)c(CC(C)C)c2)ncn1` [compound 481], the pIC50 against EP2 [2] is 7.21; at EP4, 6.95.
The matching figures for `COc1ccc(F)c2c1cc(C)n2CCNc1cc(-c2ccc(Cn3cccn3)c(F)c2)ncn1` [compound 457]: 6.05 and 6.32.
